Results taken from US6376526B1, “Triazole antifungal agents” (Pfizer Inc., priority 1996, dated 2002).

Experiments:
Candida albicans = assay: in vivo activity against acute systemic candidosis in immune-normal mice; conditions: dose protecting 50% of mice on day 2 post-infection; mice infected i.v. with Candida albicans; oral dosing 1, 4 and 24 hours post-infection
From the text: The in vivo evaluation of the compounds can be carried out at a series of dose levels by intraperitoneal or intravenous injection, or by oral administration, to mice or rats which are inoculated with, e.g. a strain of Candida albicans, Aspergillus fumigatus or Cryptococcus neoformans. Activity may be based on the number of survivors from a treated group of mice after the death of an untreated group of mice.
For Candida spp. infection models the dose level at which the compound provides 50% protection against the lethal effect of the infection (PD50) is also assessed.
The Table below illustrates the in vivo activity against acute systemic candidosis in immune-normal mice for a selection of the compounds of the invention.
Mice were infected intravenously with Candida albicans in order to establish a systemic infection (all untreated control mice died by 2 days post-infection). Compound efficacy was assessed on the basis of survival after oral dosing (0.1-5 mg/kg; 1, 4 and 24 hours post-infection) and was measured as the dose protecting 50% of mice on day 2 post-infection.

[1] = 7-day toxicity study in rats; assay type: in vivo; conditions: 30 mg/kg p.o., o.d., 7 days

Row | SMILES | PD50 (Candida albicans) [mg/kg] | adverse effects in 7-day toxicity study [1]
1 | C[C@@H](c1ccc(/C=C/n2ccnc2)cc1)[C@](O)(Cn1cncn1)c1ccc(F)cc1F (relative stereo) [Example 5, Trans-(2R,3S/2S,3R)-1-(1,2,4-triazol-1-yl)-2-(2,4-difluorophenyl)-3-{4-[2-(imidazol-1-yl)ethenyl]phenyl}butan-2-ol] | 0.18 | –
2 | C[C@@H](c1ccc(/C=C/C(C)(C)O)cn1)[C@](O)(Cn1cncn1)c1ccc(F)cc1F (relative stereo) [Example 9, Trans-(2R,3S/2S,3R)-1-(1,2,4-triazol-1-yl)-2-(2,4-difluorophenyl)-3-[5-{3-hydroxy-3-methylbut-1-en-1-yl}pyrid-2-yl]butan-2-ol] | 0.18 | –
3 | C[C@@H](c1ccc(/C=C/c2c[nH]nn2)cn1)[C@](O)(Cn1cncn1)c1ccc(F)cc1F (relative stereo) [Example 10, Trans-(2R,3S/2S,3R)-1-(1,2,4-triazol-1-yl)-2-(2,4-difluorophenyl)-3-{5-[2-(1,2,3-triazol-4-yl)ethenyl]pyrid-2-yl}butan-2-ol] | 0.32 | –
4 | C[C@@H](c1ccc(/C=C/c2ccnn2C)cc1)[C@](O)(Cn1cncn1)c1ccc(F)cc1F [Example 1, Trans-(2R,3S)-1-(1,2,4-triazol-1-yl)-2-(2,4-difluorophenyl)-3-{4-[2-(1methylpyrazol-5-yl)ethenyl]phenyl}butan-2-ol] | <0.10 | no adverse effects
